Assay results taken from US20110082080A1, “COMPOSITIONS AND METHODS OF USING THE HUMAN PROISLET PEPTIDE RECEPTOR” (CUREDM GROUP HOLDINGS, LLC, priority 2007, published 2011).
Where no end group is shown, it is not given here.

Assays:
NOD mice = test: Pilot non obese diabetic (NOD) mouse study with lysophylline (LSF); assay type: in vivo; settings: one NOD mouse per group; peptides given plus LSF; not statistically significant study; FIG. 11
From the text: The non obese diabetic (NOD) model is used as a model for type 1 autoimmune diabetes. This form of diabetes is the most challenging in that the underlying damage to the pancreas and its insulin production is due to autoimmune attack. Therefore, in order to show definitive islet neogenesis in this form of diabetes an immune tolerance agent must be used in combination with HIP. The NOD mouse model is extremely difficult model because many of the mice may only transiently become diabetic and go into remission, whereas others develop severe diabetes. The timing intervention in this transgenic mouse model is difficult to determine.
In a preliminary study that utilizing the immune tolerance agent, lysophylline (LSF) under development, three NOD mice that became diabetic and were randomized to placebo plus LSF, HIP2 plus LSF and HIP2B plus LSF.

EXTL3 = target: T1, EXTL3 (Homo sapiens, UniProt O43909); test: Western blot of EXTL3 in cytosolic and nuclear fractions of PANC-1 cells; assay type: cell-based; settings: PANC-1 cells in SFM; FIG. 14; without HIP nuclear EXTL3 observed at 6 hours
T1 construct: It was observed that EXTL3 is expressed in PANC-1 cells; endogenous in cells; host or cells: PANC-1 (human pancreatic ductal/epithelioid cell line)
T1 sequence (O43909 1-919): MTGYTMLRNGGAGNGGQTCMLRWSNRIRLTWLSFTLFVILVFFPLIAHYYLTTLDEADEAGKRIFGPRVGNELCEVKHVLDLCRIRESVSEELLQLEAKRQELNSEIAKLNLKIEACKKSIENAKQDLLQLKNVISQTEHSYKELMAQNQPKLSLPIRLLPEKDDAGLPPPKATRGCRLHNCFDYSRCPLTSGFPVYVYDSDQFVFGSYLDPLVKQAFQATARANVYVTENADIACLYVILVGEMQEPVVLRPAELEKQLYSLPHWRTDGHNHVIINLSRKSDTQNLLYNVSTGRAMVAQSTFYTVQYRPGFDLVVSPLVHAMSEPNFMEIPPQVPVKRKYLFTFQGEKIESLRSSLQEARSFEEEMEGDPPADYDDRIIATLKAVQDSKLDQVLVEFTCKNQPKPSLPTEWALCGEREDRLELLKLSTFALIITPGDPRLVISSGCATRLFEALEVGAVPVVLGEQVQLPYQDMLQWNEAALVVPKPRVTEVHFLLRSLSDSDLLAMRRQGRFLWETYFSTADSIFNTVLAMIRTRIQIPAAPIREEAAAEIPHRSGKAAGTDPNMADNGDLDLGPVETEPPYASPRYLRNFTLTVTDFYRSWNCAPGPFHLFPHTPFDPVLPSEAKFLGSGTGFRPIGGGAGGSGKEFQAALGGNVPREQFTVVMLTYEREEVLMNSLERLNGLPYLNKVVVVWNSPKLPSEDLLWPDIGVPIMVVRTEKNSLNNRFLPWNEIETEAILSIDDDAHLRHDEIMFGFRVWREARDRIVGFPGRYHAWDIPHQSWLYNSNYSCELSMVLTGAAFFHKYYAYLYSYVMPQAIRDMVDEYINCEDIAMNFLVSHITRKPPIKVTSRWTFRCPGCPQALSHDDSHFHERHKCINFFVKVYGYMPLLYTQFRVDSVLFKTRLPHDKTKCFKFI
Procedure: Western blot and immunofluorescence analyses of EXTL3 localization were performed in human PANC-1 cells grown under conditions that differentiate these cells into islet-like cells. EXTL3 is predominantly located on the external surface of the cytoplasmic membrane and its structure includes a single transmembrane region located inside of the cytoplasmic membrane. PANC-1 cells were grown in a standard growth medium or in a serum free medium (SFM) containing HIP.

[1] = system: streptozotcin-treated mice rendered diabetic; test: Repeated study in streptozotocin-treated diabetic mice with HIP2 and Optimized HIP2B; assay type: in vivo, mouse; settings: for Total Islet Mass (μm2) / Total Islets: Table 3; for Total Islet Mass (% increase) / Total Islets (% increase): Table 3, vs placebo
From the text: Differences between the two groups of HIP2B and placebo were statistically significant for both an increase in total islet mass (p=0.040) and total islet numbers (p=0.032), with the HIP2B group indicating larger values for both islet mass (M=416714.67, SD=121,389.01) and islet number (M=94, SD=32.74) than for the placebo group (islet mass: M=127410.67, SD=96930.78, islet number: M=31.67, SD=15.28).

HIP receptor/EXTL3 = target: T2, HIP receptor/EXTL3 (Homo sapiens, UniProt O43909); test: Cy3 immunofluorescence of HIP receptor/EXTL3 translocation in PANC-1 cells; assay type: cell-based; settings: for HIP receptor/EXTL3 trafficking from cytoplasmic membrane to nucleus: trypsin and serum free medium, FIG. 12
T2 construct: It was observed that EXTL3 is expressed in PANC-1 cells; endogenous in cells; host or cells: PANC-1 (human pancreatic ductal/epithelioid cell line)
T2 sequence (O43909 1-919): T1 sequence (O43909 1-919)
Procedure: Impact of HIP2B and HIP2 on HIP Receptor. To provide evidence that EXTL3 interacts with HIP, an experiment was conducted where human ductal cell line PANG-1 was used as a source of EXTL3. Using an antibody directed against EXTL3, PANC-1 cells were immunostained after being grown under conditions that differentiate these cells into islet-like cells. PANC-1 cells were grown in a standard growth medium containing 10% fetal bovine serum, or in a serum free medium (SFM) or SFM containing HIP.
The receptor for Human ProIslet Peptide was labeled using a double antibody method in a stable human pancreatic cell line. The first antibody was a rabbit polyclonal and the second was a goat-anti-rabbit labeled with Cy3 fluorescent dye.
These cells grow normally in serum free media and when treated with trypsin, are destabilized and made competent to undergo developmental changes. Cells were cultured in serum free media (SFM) with and without HIP, and in serum free media with trypsin (TSFM).
When treated with HIP under stable conditions, no changes result. When treated with HIP under developmentally competent conditions, the labeled receptor responds to the presence of HIP by being encapsulated by the cytoplasmic membrane and moving to the nuclear membrane where the signals for differentiation are received.
HIP stimulates the receptor membrane bound protein to be engulfed by the cytoplasmic membrane and transported to the nuclear membrane under adjusted exposure.

PANC-1 cells = test: Impact of HIP and Optimized HIP peptides on PANC-1 cell morphology; assay type: cell-based, human; settings: treated four days; for cell morphology changes through 7 days: pictures days 1, 2, 3, 5, 7 at 200×, FIG. 9B
Procedure: The cells were treated with HIP and Optimized HIP peptides for four days. […] FIG. 9B show the progression of the cell morphology changes through 7 days, with the control on the top, HIP2 in the middle, and HIP2B on the bottom. Pictures were taken on days 1, 2, 3, 5, and 7 at 200× magnification.

[2] = system: ductal fraction of human pancreatic cells; test: HIP2B activity in human pancreatic ductal tissue culture (CK19, nuclei and insulin staining); assay type: cell-based; settings: cultured 10 days in collagen matrix, treated every other day; FIG. 10
Procedure: The ductal fraction of human pancreatic cells were cultured for 10 days in a collagen matrix and then treated every other day with HIP2B. Cells were labeled by double antibody staining for CK 19, a marker for ductal tissue, and DAP1 staining to show nuclei and insulin.

[3] = system: human pancreatic ductal tissue; test: Insulin levels by radioimmunoassay in human pancreatic ductal fraction cultures; assay type: cell-based; settings: human ductal tissue cultured with peptide; treated day 10 and 12, lysed after 1 week; vs negative control
Procedure: In Vitro Proof of Concept of HIP Activity. Human pancreatic islet and ductal fractions were cultured over 10 days and then treated in a blinded study. Radioimmunoassay methods were used to measure insulin levels in the human pancreatic cultures treated with a scrambled peptide serving as a negative control, HIP3, HIP1, HIP2 and hamster-derived INGAP serving as a positive control. Peptides were synthesized (95% pure, research grade).
Duplicate cultures were treated in both ductal and islet fractions of human pancreatic tissue on day 10 and day 12 and then lysed for detection of insulin content after 1 week of treatment HIP peptides, control and INGAP. During 10-day culture, the insulin production goes down and then after treatment with HIP peptides, insulin is produced again.
The ductal and islet tissue were separated using the Ricordi method. Neither ductal cell nor islet culture was completely homogeneous in nature. […] The studies were repeated with similar findings shown in the following chart, with as much as a four-fold increase in insulin levels by radioimmunoassay among human ductal tissue cultured with HIP2.
The ductal fraction graph as shown in FIG. 2 depicts the insulin levels on the y axis as measured by radioimmunoassay after incubation in culture with human pancreatic ductal tissue. […]

[4] = system: mice rendered diabetic with streptozotocin; test: Streptozocin diabetic mouse study of HIP3, HIP1, HIP2 and hamster INGAP; assay type: in vivo; settings: for total islet numbers vs placebo (significance): FIG. 6, p=0.022; for total islet mass vs placebo (significance): FIG. 6, p=0.05; for Total Islet Mass (μm2) / Total Islets: Table 2, initial study; for Total Islets: histology of pancreata; for Total Islet Mass (% increase) / Total Islets (% increase): Table 2, vs placebo; for islet area: placebo 142,394, p=0.05, FIG. 6
Procedure: In Vivo Studies. HIP3, HIP1, HIP2 and hamster INGAP have been the subject of in vivo studies in mice. […] The subject number was selected to yield a sufficient number of diabetic animals for the study and animals were randomly assigned to study groups. All animals were dosed via intraperitoneal injections twice daily (am and pm) for 28 consecutive days. The timing of dose administration remained consistent (±2 hours) during the dosing phase.
Mice were injected intraperitoneally with streptozocin at 40 mg/kg in citrate buffer, pH 4.5, on 5 consecutive days in an attempt to render them diabetic. […] If the blood glucose level in any animal rose to above 400 mg/dL, the animal was treated with insulin. Every 3 days, at the same time each day, a nick was made on the tail and a drop of blood was collected. Glucose measurements were determined using a glucose meter. Group assignments and dose levels were as follows in Table 1:
Study endpoints included the following: changes in glucose; changes in insulin requirements; and histology of post-mortem pancreata.

[5] = 250 μg intraperitoneal twice daily, 28 days

C[C@@H](O)CCCCn1c(=O)c2c(ncn2C)n(C)c1=O [LSF, lysophylline, reference compound]
glucose levels during the study (NOD mice): gradual elevations in glucose

Ac-Ile-Gly-Leu-His-Asp-Pro-Thr-Gln-Gly-Thr-Glu-Pro-Asn-Gly-NH2 (Ac-IGLHDPTQGTEPNG-NH2) [HIP2B]
EXTL3 translocation by Western blot (EXTL3): enhancing EXTL3 translocation from the cytoplasmic membrane to the nucleus
Total Islet Mass (μm2) [1]: 416,715 μm2
Total Islets [1]: 94
Total Islet Mass (% increase) [1]: 398%
Total Islets (% increase) [1]: 168%
rise in the total number of islets compared to placebo-treated mice ([1]; fold): three-fold
islet number (M) ([1]; mean, SD=32.74, placebo M=31.67, p=0.032): 94
islet mass (M) ([1]; mean, SD=121,389.01, placebo M=127410.67, p=0.040): 416714.67
islet size vs placebo-treated mice ([1]; not statistically significant (t=0.708, p=0.518)): normally sized islets were generated
interaction with receptor/EXTL3 and trafficking to nucleus, compared with HIP2 (HIP receptor/EXTL3): as effective as HIP2
HIP receptor/EXTL3 trafficking from cytoplasmic membrane to nucleus (HIP receptor/EXTL3): stimulated traffic from the HIP receptor on the cytoplasmic membrane into the nucleus
morphological differences vs control on day 7 (PANC-1 cells; 200×, FIG. 9A): histologically more differentiated cells
cell morphology changes through 7 days (PANC-1 cells): deviate significantly from their initial appearance
insulin expression after treatment [2]: induced insulin expression in otherwise insulin negative cells
glucose levels during the study (NOD mice): steadily improved glucose levels

IGLHDPTQGTEPNG [HIP2]
increase in insulin levels by radioimmunoassay [3]: four-fold
EXTL3 translocation by Western blot (EXTL3): enhancing EXTL3 translocation from the cytoplasmic membrane to the nucleus
Total Islet Mass (μm2) [1]: 202,955 μm2
Total Islets [1]: 65
Total Islet Mass (% increase) [1]: 143%
Total Islets (% increase) [1]: 86%
lower mean glucose vs control [4, 5]: 29.4%
day by which mice were completely insulin-free ([4]; 250 μg intraperitoneal twice daily, 28 days, FIG. 4): ≤ 21 days
total islet numbers vs placebo (significance) [4]: significantly increased total islet numbers
total islet mass vs placebo (significance) [4]: significantly greater total islet mass
Total Islet Mass (μm2) [4]: 2161782 μm2
Total Islets [4]: 454
Total Islet Mass (% increase) [4]: 153%
Total Islets (% increase) [4]: 62%
islet area [4]: 360,297 μm(2)
HIP receptor/EXTL3 trafficking from cytoplasmic membrane to nucleus (HIP receptor/EXTL3): stimulated traffic from the HIP receptor on the cytoplasmic membrane into the nucleus
cell morphology changes through 7 days (PANC-1 cells): deviate significantly from their initial appearance
glucose levels during the study (NOD mice): steadily improved glucose levels

IGLHDPTQGTEPNGE [HIP3]
lower mean glucose vs control [4, 5]: 57.3%
total islet numbers vs placebo (significance) [4]: significantly increased total islet numbers
total islet mass vs placebo (significance) [4]: significantly greater total islet mass
Total Islet Mass (μm2) [4]: 1703513 μm2
Total Islets [4]: 410
Total Islet Mass (% increase) [4]: 99%
Total Islets (% increase) [4]: 46%
islet area [4]: 283,918 μm(2)

WIGLHDPTQGTEPNG [HIP1]
lower mean glucose vs control [4, 5]: 14.7%
